target: T1, VLA4 (Homo sapiens, UniProt P05556+P13612); test: Inhibition of VLA4-dependent adhesion to BSA-CS1 (labelled Ramos cells); assay type: cell-based; details: binding of BCECF-AM labelled Ramos cells to CS1 peptide-coated wells, 2 mM MnCl2, 30 minutes at room temperature; IC50 range
T1 construct: endogenous in cells; host or cells: Ramos cells
Excerpt: For example, the cell adhesion inhibitory activity of these compounds may be measured by determining the concentration of inhibitor required to block the binding of VLA-4-expressing cells to fibronectin- or CS1-coated plates. In this assay microtiter wells are coated with either fibronectin (containing the CS-1 sequence) or CS-1. If CS-1 is used, it must be conjugated to a carrier protein, such as bovine serum albumin, in order to bind to the wells. Once the wells are coated, varying concentrations of the test compound are then added together with appropriately labelled, VLA-4-expressing cells. Alternatively, the test compound may be added first and allowed to incubate with the coated wells prior to the addition of the cells. The cells are allowed to incubate in the wells for at least 30 minutes. Following incubation, the wells are emptied and washed. Inhibition of binding is measured by quantitating the fluorescence or radioactivity bound to the plate for each of the various concentrations of test compound, as well as for controls containing no test compound.
VLA-4-expressing cells that may be utilized in this assay include Ramos cells, Jurkat cells, A375 melanoma cells, as well as human peripheral blood lymophocytes (PBLs). The cells used in this assay may be fluorescently or radioactively labelled.
This assay was used to assess the potency of VLA4-directed inhibitory compounds of this invention.
We dissolved BSA-SMCC (Pierce Chemical, Rockford, Ill.; Catalog # 77115) in H2O at a concentration of 10 mg/mL. [SEQ ID NO:4]: […](“Cys-Tyr-CS1 peptide”), which we synthesized by conventional solid phase chemistry and purified by HPLC, was dissolved in 10 mM HEPES pH 5, 50 mM NaCl and 0.1 mM EDTA also at a concentration of 10 mg/mL. We then mixed 500 μL of BSA-SMCC, 250 μL of Cys-Tyr-CS1 peptide and 75 μL of […] and allowed the conjugation reaction to proceed for 30 minutes. We stopped the reaction by adding 1 μL of beta-mercaptoethanol. Samples were analyzed for cross-linking by SDS-PAGE. This reaction produced multiple molecules of the Cys-Tyr-CS1 peptide conjugate to each BSA molecule.
We coated the wells of a Linbro titertek polystyrene 96-well flat bottom plate (Flow Laboratories, Maclean, Va.; catalog #76-231-05) with 100 μL of the above-described BSA-CS1 solution diluted to 1 μg/mL in 0.05 M NaHCO3 (15 mM NaHCO3, 35 mM Na2CO3) pH 9.2. Some wells were not coated with CS1 in order to assess non-specific cell binding (NSB). The plate was then incubated overnight at 4° C.
Following this incubation, the contents of the wells were removed by inverting and blotting the plate. All of the wells were then blocked with 100 μL of 1% BSA in PBS, 0.02% NaN3, for a minimum of one hour at room temperature.
3. Preparation of Fluorescently Labelled Ramos Cells Ramos cells are grown, maintained and labelled in RPMI 1640 culture medium containing 1% BSA. Just prior to running the assay, we added 2′,7′-bis-(2-carboxyethyl)5 (and -6) carboxyfluorescein acetoxymethyl ester (“BCECF-AM”; Molecular Probes Inc., Eugene, Oreg.; catalog #B-1150) to a final concentration of 2 μM to a culture of Ramos cells (4×10^6 cells/mL). We incubated the cells for 20 minutes at 37° C.
Following labelling, the cells were washed twice in assay buffer (24 mM TRIS, 137 mM NaCl, 2.7 mM KCl, pH 7.4, containing 0.1% BSA and 2 mM glucose) to remove any cations originating from the culture medium. The cells were then resuspended in assay buffer to 4×10^6 cells/mL and 2 mM MnCl2 was added to upregulate VLA4 on the surface of the cells.
Immediately prior to running the assay, we removed the BSA blocking solution from the 96-well plates and washed the wells with 100 μL of assay buffer. We then added to each well 25 μL of test cell adhesion inhibitory compound at 2× the final concentration and 25 μL of the labelled Ramos cells. Final concentrations were selected across a range of anticipated IC50s, usually between 0.01 nM–10 μM. […]

T1 sequence (P13612 34-1032): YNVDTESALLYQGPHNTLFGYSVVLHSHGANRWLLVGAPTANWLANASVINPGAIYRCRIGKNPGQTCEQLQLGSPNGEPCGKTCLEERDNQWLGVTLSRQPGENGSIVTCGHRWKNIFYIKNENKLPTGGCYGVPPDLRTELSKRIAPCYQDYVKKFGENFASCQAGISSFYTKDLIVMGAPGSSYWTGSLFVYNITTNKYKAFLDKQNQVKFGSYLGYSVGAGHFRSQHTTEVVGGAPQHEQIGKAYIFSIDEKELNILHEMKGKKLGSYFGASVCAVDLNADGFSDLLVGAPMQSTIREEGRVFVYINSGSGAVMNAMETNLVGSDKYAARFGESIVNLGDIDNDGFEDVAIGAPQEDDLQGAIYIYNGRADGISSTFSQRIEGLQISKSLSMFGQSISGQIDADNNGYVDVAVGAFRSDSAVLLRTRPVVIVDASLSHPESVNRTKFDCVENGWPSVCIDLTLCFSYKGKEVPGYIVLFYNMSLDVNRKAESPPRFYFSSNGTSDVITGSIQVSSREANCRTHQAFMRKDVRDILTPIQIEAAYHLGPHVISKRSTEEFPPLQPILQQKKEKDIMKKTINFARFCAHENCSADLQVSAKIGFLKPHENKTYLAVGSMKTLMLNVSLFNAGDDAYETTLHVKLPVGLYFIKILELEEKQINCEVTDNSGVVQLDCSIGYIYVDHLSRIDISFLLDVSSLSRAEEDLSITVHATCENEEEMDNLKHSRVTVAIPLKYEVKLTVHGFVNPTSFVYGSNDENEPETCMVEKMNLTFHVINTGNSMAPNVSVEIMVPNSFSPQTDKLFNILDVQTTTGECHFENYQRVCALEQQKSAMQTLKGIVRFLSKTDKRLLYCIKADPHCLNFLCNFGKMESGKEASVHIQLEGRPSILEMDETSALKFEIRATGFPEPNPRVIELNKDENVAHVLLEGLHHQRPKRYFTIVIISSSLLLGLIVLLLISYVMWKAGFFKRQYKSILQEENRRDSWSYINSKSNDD
T1 sequence (P05556 21-798): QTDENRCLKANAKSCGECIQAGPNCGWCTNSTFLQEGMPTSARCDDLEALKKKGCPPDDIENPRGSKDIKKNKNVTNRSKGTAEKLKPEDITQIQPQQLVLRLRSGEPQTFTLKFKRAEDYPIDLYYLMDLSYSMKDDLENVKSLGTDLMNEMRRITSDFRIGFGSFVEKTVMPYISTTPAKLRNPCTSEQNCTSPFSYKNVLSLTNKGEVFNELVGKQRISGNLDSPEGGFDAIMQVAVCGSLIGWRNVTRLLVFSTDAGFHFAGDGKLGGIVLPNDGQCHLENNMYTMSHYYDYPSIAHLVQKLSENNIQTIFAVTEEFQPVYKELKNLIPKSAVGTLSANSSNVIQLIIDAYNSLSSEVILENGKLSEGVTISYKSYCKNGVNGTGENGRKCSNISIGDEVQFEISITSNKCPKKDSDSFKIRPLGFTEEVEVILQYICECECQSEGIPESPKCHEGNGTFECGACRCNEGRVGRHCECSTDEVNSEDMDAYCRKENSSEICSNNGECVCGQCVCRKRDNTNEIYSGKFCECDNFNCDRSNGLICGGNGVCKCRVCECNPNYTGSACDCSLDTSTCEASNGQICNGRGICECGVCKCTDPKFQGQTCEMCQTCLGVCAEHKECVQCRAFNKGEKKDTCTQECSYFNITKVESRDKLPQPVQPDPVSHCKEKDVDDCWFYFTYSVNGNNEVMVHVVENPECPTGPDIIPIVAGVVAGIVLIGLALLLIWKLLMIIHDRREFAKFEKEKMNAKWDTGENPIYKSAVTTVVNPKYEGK

IC50 | SMILES
> 10 µM | CC(C)CC(NC(=O)c1ccc2ccccc2n1)C(=O)NC(CC(=O)O)c1ccccc1 (stereo not drawn) [compound 1149]
0.05 to 10 µM | CC(C)CC(NC(=O)Cc1ccc(NC(=O)Nc2ccccc2)cc1)C(=O)NC(CC(=O)O)Cc1ccccc1 (stereo not drawn) [compound 1063]
< 0.05 µM | COc1ccc(C(CC(=O)O)NC(=O)C(CCSC)NC(=O)Cc2ccc(NC(=O)Nc3ccccc3C)cc2)cc1OC (stereo not drawn) [compound 1224]
> 10 µM | CC(C)CC(NC(=O)Cc1ccncc1)C(=O)NC(CC(=O)O)c1ccccc1 (stereo not drawn) [compound 1007]
> 10 µM | CC(C)CC(NC(=O)OCc1ccccc1)C(=O)NC(CC(=O)O)c1cccnc1 (stereo not drawn) [compound 1153]
> 10 µM | CC(C)CC(NC(=O)OCc1ccccc1)C(=O)NC(CC(=O)O)c1ccccc1 (stereo not drawn) [compound 1085]
0.05 to 10 µM | CC(C)CC(NC(=O)Cc1ccc(NC(=O)Nc2cccc(Cl)c2)cc1)C(=O)NC(CC(=O)O)c1ccc2c(c1)OCO2 (stereo not drawn) [compound 1181]
< 0.05 µM | COC(=O)c1ccc(C(CC(=O)O)NC(=O)C(CCCCNS(C)(=O)=O)NC(=O)Cc2ccc(NC(=O)Nc3ccccc3C)cc2)cc1 (stereo not drawn) [compound 1382]
< 0.05 µM | Cc1ccccc1NC(=O)Nc1ccc(CC(=O)NC(CCCCNS(C)(=O)=O)C(=O)NC(CC(=O)O)c2ccc3c(c2)OCO3)cc1 (stereo not drawn) [compound 1294]
< 0.05 µM | COc1ccc(C(CC(=O)O)NC(=O)C(CC(C)C)NC(=O)Cc2ccc(NC(=O)Nc3ccccc3)cc2)cc1OC (stereo not drawn) [compound 1196]
0.05 to 10 µM | CC(C)CC(NC(=O)Cc1ccc(NC(=O)Nc2ccccc2)cc1)C(=O)NC(CC(=O)O)c1ccccc1 (stereo not drawn) [compound 1060]
0.05 to 10 µM | CC(C)CC(NC(=O)Cc1ccc(NC(=O)NCc2ccccc2)cc1)C(=O)NC(CC(=O)O)c1ccc2c(c1)OCO2 (stereo not drawn) [compound 1169]
0.05 to 10 µM | NCCCCC(NC(=O)Cc1ccc(NC(=O)Nc2ccccc2)cc1)C(=O)NC(CC(=O)O)c1ccccc1 (stereo not drawn) [compound 1139]
0.05 to 10 µM | O=C(O)CC(NC(=O)C(Cc1ccccc1)NC(=O)Cc1ccc(NC(=O)Nc2ccccc2)cc1)c1ccc2c(c1)OCO2 (stereo not drawn) [compound 1129]
> 10 µM | CN(C)CCC(NC(=O)Cc1ccc(NC(=O)Nc2ccccc2)cc1)C(=O)NC(CC(=O)O)c1ccc2c(c1)OCO2 (stereo not drawn) [compound 1215]
0.05 to 10 µM | COc1ccc(C(CC(=O)O)NC(=O)C(CCSC)NC(=O)Cc2ccc(O)cc2)cc1 (stereo not drawn) [compound 1174]
> 10 µM | CC(C)CC(NC(=O)Cc1ccccc1N)C(=O)NC(CC(=O)O)c1ccccc1 (stereo not drawn) [compound 1024]
0.05 to 10 µM | C#CCN(C)C(=O)CC(NC(=O)Cc1ccc(NC(=O)Nc2ccccc2)cc1)C(=O)NC(CC(=O)O)c1ccc2c(c1)OCO2 (stereo not drawn) [compound 1177]
> 10 µM | COc1ccc(CC(NC(=O)Cc2ccccc2)C(=O)NC(CC(=O)O)c2ccccc2)cc1 (stereo not drawn) [compound 1122]
0.05 to 10 µM | CC(C)CC(NC(=O)Cc1cccc(O)c1)C(=O)NC(CC(=O)O)c1ccccc1 (stereo not drawn) [compound 1097]
> 10 µM | CC(C)CC(NC(=O)C1CCc2ccccc21)C(=O)NC(CC(=O)O)c1ccccc1 (stereo not drawn) [compound 1189]
< 0.05 µM | CC(=O)NCCCCC(NC(=O)Cc1ccc(NC(=O)Nc2ccccc2C)cc1)C(=O)NC(CC(=O)O)c1ccc2c(c1)OCO2 (stereo not drawn) [compound 1270]
0.05 to 10 µM | CC(C)CC(NC(=O)Cc1ccc(NC(=O)OC(C)(C)C)cc1)C(=O)NC(CC(=O)O)c1ccccc1 (stereo not drawn) [compound 1145]
> 10 µM | CCCCCCC(=O)NC(CC(C)C)C(=O)NC(CC(=O)O)c1ccccc1 (stereo not drawn) [compound 1094]
0.05 to 10 µM | O=C(O)CC(NC(=O)C(CCN1CCOCC1)NC(=O)Cc1ccc(NC(=O)Nc2ccccc2)cc1)c1ccc2c(c1)OCO2 (stereo not drawn) [compound 1191]
0.05 to 10 µM | CC(C)CC(NC(=O)Cc1cccc(NC(=O)Nc2ccccc2)c1)C(=O)NC(CC(=O)O)c1ccccc1 (stereo not drawn) [compound 1054]

IC50 | SMILES
0.05 to 10 µM | O=C(O)CC(NC(=O)C(CC(=O)N1CCOCC1)NC(=O)Cc1ccc(NC(=O)Nc2ccccc2)cc1)c1ccc2c(c1)OCO2 (stereo not drawn) [compound 1170]
0.05 to 10 µM | COc1cccc(C(CC(=O)O)NC(=O)C(CC(C)C)NC(=O)Cc2ccc(O)cc2)c1 (stereo not drawn) [compound 1146]
> 10 µM | O=C(O)CC(NC(=O)C(CCc1ccccc1)NC(=O)Cc1ccccc1)c1ccccc1 (stereo not drawn) [compound 1123]
> 10 µM | CC(=O)Nc1cccc(CC(=O)NC(CC(C)C)C(=O)NC(CC(=O)O)c2ccccc2)c1 (stereo not drawn) [compound 1018]
0.05 to 10 µM | CC(C)CC(C(=O)NC(CC(=O)O)c1ccccc1)N(C)C(=O)Cc1ccc(NC(=O)Nc2ccccc2)cc1 (stereo not drawn) [compound 1053]
0.05 to 10 µM | CC(C)CC(NC(=O)Cc1ccc(NC(=O)NC(C)C)cc1)C(=O)NC(CC(=O)O)c1ccc2c(c1)OCO2 (stereo not drawn) [compound 1065]
0.05 to 10 µM | CSCCC(NC(=O)Cc1ccc(NC(=O)Nc2ccccc2)cc1)C(=O)NC(CC(=O)O)c1ccc2c(c1)OCO2 (stereo not drawn) [compound 1163]
< 0.05 µM | Cc1ccccc1NC(=O)Nc1ccc(CC(=O)NC(CC(C)C)C(=O)NC(CC(=O)O)c2ccc3c(c2)OCCO3)cc1 (stereo not drawn) [compound 1210]
< 0.05 µM | CSCCC(NC(=O)Cc1ccc(NC(=O)Nc2ccccc2)cc1)C(=O)NC(CC(=O)O)c1ccccc1 (stereo not drawn) [compound 1135]
0.05 to 10 µM | CCC(C)C(NC(=O)Cc1ccccc1)C(=O)NC(CC(=O)O)c1ccccc1 (stereo not drawn) [compound 1040]
0.05 to 10 µM | O=C(O)CC(NC(=O)C(CCCCNC(=O)OCc1ccccc1)NC(=O)Cc1ccc(NC(=O)Nc2ccccc2)cc1)c1ccccc1 (stereo not drawn) [compound 1132]
< 0.05 µM | COc1ccccc1C(CC(=O)O)NC(=O)C(CC(C)C)NC(=O)Cc1ccc(NC(=O)Nc2ccccc2)cc1 (stereo not drawn) [compound 1069]
0.05 to 10 µM | CN=C(Nc1ccccc1)Nc1ccc(CC(=O)NC(CC(C)C)C(=O)NC(CC(=O)O)c2ccc3c(c2)OCO3)cc1 (stereo not drawn) [compound 1380]
0.05 to 10 µM | CCc1ccccc1NC(=O)Nc1ccc(CC(=O)NC(CC(C)C)C(=O)NC(CC(=O)O)c2ccc3c(c2)OCO3)cc1 (stereo not drawn) [compound 1200]
> 10 µM | CC(C)CC(NC(=O)Cc1ccccn1)C(=O)NC(CC(=O)O)c1ccccc1 (stereo not drawn) [compound 1004]
> 10 µM | O=C(O)CC(NC(=O)C(COCc1ccccc1)NC(=O)Cc1ccccc1)c1ccccc1 (stereo not drawn) [compound 1126]
> 10 µM | CC(C)CC(NC(=O)CCc1ccccc1)C(=O)NC(CC(=O)O)c1ccccc1 (stereo not drawn) [compound 1150]
< 0.05 µM | Cc1ccccc1NC(=O)Nc1ccc(CC(=O)NC(CC(C)C)C(=O)NC(CC(=O)O)c2ccc(F)cc2)cc1 (stereo not drawn) [compound 1248]
0.05 to 10 µM | COc1ccc(C(CC(=O)O)NC(=O)C(CC(C)C)NC(=O)Cc2ccc(NC(=O)Nc3nccs3)cc2)cc1 (stereo not drawn) [compound 1180]
> 10 µM | CC(C)CC(NC(=O)Cc1ccccc1NC(=O)c1ccccc1)C(=O)NC(CC(=O)O)c1ccccc1 (stereo not drawn) [compound 1026]
> 10 µM | CC(C)CC(NC(=O)Nc1ccc(N)cc1)C(=O)NC(CC(=O)O)c1ccccc1 (stereo not drawn) [compound 1109]
> 10 µM | CC(C)CC(NC(=O)Cc1cccnc1)C(=O)NC(CC(=O)O)c1ccccc1 (stereo not drawn) [compound 1005]
< 0.05 µM | COc1cc(CC(=O)NC(CC(C)C)C(=O)NC(CC(=O)O)c2ccc3c(c2)OCO3)ccc1NC(=O)Nc1ccccc1Cl (stereo not drawn) [compound 1222]
0.05 to 10 µM | O=C(O)CC(NC(=O)C(Cc1nccs1)NC(=O)Cc1ccc(NC(=O)Nc2ccccc2)cc1)c1ccccc1 (stereo not drawn) [compound 1037]
0.05 to 10 µM | O=C(O)CC(NC(=O)C(CSCc1ccccc1)NC(=O)Cc1ccccc1)c1ccccc1 (stereo not drawn) [compound 1127]

— US7001921B1, “Cell adhesion inhibitors” (Biogen Idec MA Inc., priority 1995, dated 2006)
